Measurements from patent US20250179047A1, “5-[7-(3,4-DIHYDRO-1H-ISOQUINOLINE-2-CARBONYL)-1,2,3,4 TETRAHYDROISOQUINOLIN-6-YL]-1H-PYRROLE-3-CARBOXAMIDE DERIVATIVES, PHARMACEUTICAL COMPOSITIONS CONTAINING THEM AND THEIR USES AS PRO-APOPTOTIC AGENTS” (LES LABORATOIRES SERVIER, priority 2022, published 2025).

What was measured:
BCL2 WT = BCL2 WT (Homo sapiens (Human), UniProt P10415); assay: TR-FRET competitive binding assay, BCL2 WT; conditions: Ki determined from IC50, read-out: TR_FRET EKI_Bcl2 WT
Method in brief: (§1)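 Competitive TR-FRET displacement of fluorescein-PUMA peptide (2 or 20 nM) from 0.5 nM terbium-labelled N-terminal Halo-fusion BCL2 (1-207, wild type or mutant) or BCLXL (2-196), expressed in E. coli. Buffer 50 mM Hepes pH 7.5, 150 mM NaCl, 5% DMSO; 2 h at 23°C. 520/495 nm ratio fitted over 11 points for IC50, converted to Ki.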

BCL2 D103Y = BCL2 D103Y (Homo sapiens, UniProt P10415, D103Y); assay: TR-FRET competitive binding assay, BCL2 D103Y; conditions: Ki determined from IC50, read-out: TR_FRET EKI_Bcl2 D103Y
Method in brief: as §1

BCL2 G101V [1] = molecular target: BCL2 G101V (Homo sapiens, UniProt P10415, G101V); assay: TR-FRET competitive binding assay, BCL2 G101V; conditions: BCL2 G101V; Ki determined from IC50; read-out: TR_FRET EKI_Bcl2 G101V
Method in brief: as §1

BCL2 G101V [2] = assay: TR-FRET competitive binding assay, BCL2 G101V; parameters: species or system human; conditions: ratio Ki BCL2 G101V / Ki BCL2 WT
Method in brief: as §1

KMS-12-PE Bcl-2 G101V = assay: In vitro cytotoxicity CellTiter-Glo 48 h, KMS-12-PE Bcl-2 G101V; assay type: cell-based; conditions: for Ratio (G101V/WT): C50 KMS-12-PE Bcl-2 G101V over C50 KMS-12-PE Bcl-2 WT; for IC50: Homo sapiens, KMS-12-PE, 48 h, CellTiter-Glo, C50 = concentration needed to reach 50% of the cellular viability
Method in brief: (§2)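 KMS-12-PE myeloma cells were lentivirally transduced with wild-type or G101V-mutant Bcl-2 and sorted by TagRFP. They were exposed to compounds as 11-point dose responses for 48 h at 37 °C, 5% CO2. Viability was read by CellTiter-Glo ATP luminescence, and C50 was the concentration giving 50% viability.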

BCLXL WT = BCLXL WT (Homo sapiens (Human), UniProt Q07817); assay: TR-FRET competitive binding assay, BCLXL WT; conditions: for Ki: BCLXL WT, Ki determined from IC50, read-out: TR_FRET EKI BclxL; for TR_FRET EKI BCLxL/WT selectivty ratio: ratio Ki BCLxL / Ki BCL2 WT
Method in brief: as §1

KMS-12-PE Bcl-2 WT = assay: In vitro cytotoxicity CellTiter-Glo 48 h, KMS-12-PE Bcl-2 WT; assay type: cell-based; conditions: Homo sapiens, KMS-12-PE, C50 = concentration needed to reach 50% of the cellular viability
Method in brief: as §2

Sequence of BCLXL WT (Q07817 other isoform, or with tags, fused parts or gaps): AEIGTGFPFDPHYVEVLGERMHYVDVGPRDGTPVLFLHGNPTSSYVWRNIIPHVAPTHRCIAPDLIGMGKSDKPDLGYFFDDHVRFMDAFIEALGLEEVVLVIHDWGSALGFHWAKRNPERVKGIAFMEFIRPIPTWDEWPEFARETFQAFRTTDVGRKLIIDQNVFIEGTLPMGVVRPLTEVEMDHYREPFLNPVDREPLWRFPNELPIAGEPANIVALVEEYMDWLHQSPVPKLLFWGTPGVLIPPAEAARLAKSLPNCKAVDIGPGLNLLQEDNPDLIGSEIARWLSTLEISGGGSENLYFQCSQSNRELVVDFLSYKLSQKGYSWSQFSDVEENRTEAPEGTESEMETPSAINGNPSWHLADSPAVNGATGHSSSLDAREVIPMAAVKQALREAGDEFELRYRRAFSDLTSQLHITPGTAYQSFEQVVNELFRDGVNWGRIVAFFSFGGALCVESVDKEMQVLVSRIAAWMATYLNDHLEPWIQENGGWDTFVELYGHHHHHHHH

Structure (SMILES)	Ki (BCL2 WT)	Ki (BCL2 D103Y)	Ki (BCL2 G101V [1])	TR_FRET EKI G101V/WT selectivty ratio (BCL2 G101V [2])	Ratio (G101V/WT) (KMS-12-PE Bcl-2 G101V)	IC50 (KMS-12-PE Bcl-2 G101V)	Ki (BCLXL WT)	TR_FRET EKI BCLxL/WT selectivty ratio (BCLXL WT)	IC50 (KMS-12-PE Bcl-2 WT)
Cc1c(C(=O)N(c2ccc(O)cc2)c2cnn3c2CCCC3)cc(-c2cc3c(cc2C(=O)N2Cc4ccccc4C[C@H]2C)CN(C(=O)Cc2ccc(OCCN4CCOCC4)cc2)CC3)n1C [Example 147, N-(4-hydroxyphenyl)-1,2-dimethyl-5-(7-{[(3R)-3-methyl-3,4-dihydro-1H-isoquinolin-2-yl]carbonyl}-2-(2-{4-[2-(morpholin-4-yl)ethoxy]phenyl}acetyl)-3,4-dihydro-1H-isoquinolin-6-yl)-N-{4H,5H,6H,7H-pyrazolo[1,5-a]pyridin-3-yl}pyrrole-3-carboxamide]	0.06 nM	0.14 nM	0.3 nM	5.9	6.9408	0.211 µM	1 nM	17.2	0.0304 µM
Cc1c(N(C(=O)c2cc(-c3cc4c(cc3C(=O)N3Cc5ccccc5C[C@H]3CN3CCCCC3)CN(C(=O)Cc3ccc(COCC5CCOCC5)cc3)CC4)n(C)c2C)c2ccc(O)cc2)cc(C#N)n1C [Example 149, N-(5-cyano-1,2-dimethyl-1H-pyrrol-3-yl)-N-(4-hydroxyphenyl)-1,2-dimethyl-5-{2-[2-(4-{[(oxan-4-yl)methoxy]methyl}phenyl)acetyl]-7-[(3S)-3-[(piperidin-1-yl)methyl]-1,2,3,4-tetrahydroisoquinoline-2-carbonyl]-1,2,3,4-tetrahydroisoquinolin-6-yl}-1H-pyrrole-3-carboxamide]	0.1 nM	0.23 nM	1.1 nM	11.2	10.921	0.261 µM	1.9 nM	19.4	0.0239 µM
Cc1c(N(C(=O)c2cc(-c3cc4c(cc3C(=O)N3Cc5ccccc5C[C@H]3CN3CCCCC3)CN(C(=O)Cc3ccc(OCCN5CCO[C@@H](C)C5)cc3)CC4)n(C)c2C)c2ccc(O)cc2)cc(C#N)n1C [Example 150, N-(5-cyano-1,2-dimethyl-1H-pyrrol-3-yl)-N-(4-hydroxyphenyl)-1,2-dimethyl-5-[2-(2-{4-[2-((2S)-2-methylmorpholin-4-yl)ethoxy]phenyl}acetyl)-7-[(3S)-3-[(piperidin-1-yl)methyl]-1,2,3,4-tetrahydroisoquinoline-2-carbonyl]-1,2,3,4-tetrahydroisoquinolin-6-yl]-1H-pyrrole-3-carboxamide]	0.04 nM	0.08 nM	0.2 nM	6.2	5.2636	0.0579 µM	2.6 nM	70.3	0.011 µM
Cc1c(N(C(=O)c2cc(-c3cc4c(cc3C(=O)N3Cc5ccccc5C[C@H]3CN3CCCCC3)CN(C(=O)Cc3ccc(OCCN5CCO[C@H](C)C5)cc3)CC4)n(C)c2C)c2ccc(O)cc2)cc(C#N)n1C [Example 151, N-(5-cyano-1,2-dimethyl-1H-pyrrol-3-yl)-N-(4-hydroxyphenyl)-1,2-dimethyl-5-[2-(2-{4-[2-((2R)-2-methylmorpholin-4-yl)ethoxy]phenyl}acetyl)-7-[(3S)-3-[(piperidin-1-yl)methyl]-1,2,3,4-tetrahydroisoquinoline-2-carbonyl]-1,2,3,4-tetrahydroisoquinolin-6-yl]-1H-pyrrole-3-carboxamide]	0.05 nM	0.1 nM	0.3 nM	6.4	6.0476	0.0635 µM	2.7 nM	57.4	0.0105 µM
Cc1c(N(C(=O)c2cc(-c3cc4c(cc3C(=O)N3Cc5ccccc5C[C@H]3CN3CCC[C@H](C)C3)CN(C(=O)Cc3ccc(OCCN5CCOCC5)cc3)CC4)n(C)c2C)c2ccc(O)cc2)cc(C#N)n1C [Example 153, N-(5-cyano-1,2-dimethyl-pyrrol-3-yl)-N-(4-hydroxyphenyl)-1,2-dimethyl-5-[7-[(3S)-3-[[(3S)-3-methyl-1-piperidyl]methyl]-3,4-dihydro-1H-isoquinoline-2-carbonyl]-2-[2-[4-(2-morpholinoethoxy)phenyl]acetyl]-3,4-dihydro-1H-isoquinolin-6-yl]pyrrole-3-carboxamide]	0.13 nM	0.38 nM	0.4 nM	3.5	5.3741	0.051 µM	5.2 nM	41.6	0.0095 µM
Cc1c(N(C(=O)c2cc(-c3cc4c(cc3C(=O)N3Cc5ccccc5C[C@H]3CN3CCCC3)CN(C(=O)Cc3ccc(OCCN5CCN(CC(F)F)CC5)cc3)CC4)n(C)c2C)c2ccc(O)cc2)cc(C#N)n1C [Example 154, N-(5-cyano-1,2-dimethylpyrrol-3-yl)-5-{2-[2-(4-{2-[4-(2,2-difluoroethyl)piperazin-1-yl]ethoxy}phenyl)acetyl]-7-{[(3S)-3-(pyrrolidin-1-ylmethyl)-3,4-dihydro-1H-isoquinolin-2-yl]carbonyl}-3,4-dihydro-1H-isoquinolin-6-yl}-N-(4-hydroxyphenyl)-1,2-dimethylpyrrole-3-carboxamide]	0.04 nM	0.14 nM	0.3 nM	8.4	3.9552	0.265 µM	4.1 nM	110.8	0.067 µM
CCN(C[C@@H]1Cc2ccccc2CN1C(=O)c1cc2c(cc1-c1cc(C(=O)N(c3ccc(O)cc3)c3cc(C#N)n(C)c3C)c(C)n1C)CCN(C(=O)Cc1ccc(OCCN3CCOCC3)cc1F)C2)C(C)C [Example 155, N-(5-cyano-1,2-dimethylpyrrol-3-yl)-5-(7-{[(3S)-3-{[ethyl(isopropyl)amino]methyl}-3,4-dihydro-1H-isoquinolin-2-yl]carbonyl}-2-(2-{2-fluoro-4-[2-(morpholin-4-yl)ethoxy]phenyl}acetyl)-3,4-dihydro-1H-isoquinolin-6-yl)-N-(4-hydroxyphenyl)-1,2-dimethylpyrrole-3-carboxamide]	0.04 nM	0.11 nM	0.4 nM	8.8	8.0857	0.0849 µM	1.7 nM	39.5	0.0105 µM
Cc1c(N(C(=O)c2cc(-c3cc4c(cc3C(=O)N3Cc5ccccc5C[C@H]3CN3CC[C@@H](C)C3)CN(C(=O)Cc3ccc(OCCN5CCOCC5)cc3F)CC4)n(C)c2C)c2ccc(O)cc2)cc(C#N)n1C [Example 156, N-(5-cyano-1,2-dimethylpyrrol-3-yl)-5-[2-(2-{2-fluoro-4-[2-(morpholin-4-yl)ethoxy]phenyl}acetyl)-7-{[(3S)-3-{[(3R)-3-methylpyrrolidin-1-yl]methyl}-3,4-dihydro-1H-isoquinolin-2-yl]carbonyl}-3,4-dihydro-1H-isoquinolin-6-yl]-N-(4-hydroxyphenyl)-1,2-dimethylpyrrole-3-carboxamide]	0.05 nM	0.1 nM	0.2 nM	4.0	5.2662	0.0811 µM	2.7 nM	50.9	0.0154 µM
